Laboratory results as given in PMC10458859, “Stem Cell Bioengineering with Bioportides: Inhibition of Planarian Head Regeneration with Peptide Mimetics of Eyes Absent Proteins” (Pharmaceutics, 2023).
[ ]: non-standard residue; d: D form. Aib = CC(C)(N)C(=O)O

Columns and labels:
[1] = system: decapitated S. mediterranea; assay: Anterior pole regeneration and eye development assay; format: in vivo, Schmidtea mediterranea; conditions: for influence upon planarian head regeneration: 25 μM exogenous application to decapitated S. mediterranea, monitored over 8 days; for response to light: 25 μM in PAM after amputation, day 8; for response to light / regeneration of the anterior pole, including the eye spots: re-treated day 4; for regeneration of the anterior pole, including the eye spots: 25 μM in PAM immediately after transverse amputation, observed day 8, compared to PAM alone; for animals that achieved full regeneration / animals that had commenced the development of photoreceptors within the unpigmented blastema: n = 9; for animals that had commenced the development of photoreceptors within the unpigmented blastema: 25 μM, day 9 post amputation
Description: Adult planaria, 4–6 mm in length, and selected for experimentation were starved 5 days prior to amputation. Transverse amputation of planarian heads, post-auricle and pre-pharynx, induced blastema formation in the trunk section, leading to eye regeneration and head remodeling.
Post amputation, planaria were immediately treated with exogenously added Djeya1 analogues in 35 mm diameter × 10 mm depth culture dishes (VWR International Ltd., Lutterworth, UK) to a final volume of 4 mL PAM and maintained at 20 °C. PAM, containing Djeya1 analogues, was replenished 4 days post amputation. […]

[2] = Circular dichroism secondary structure analysis; format: physicochemical; conditions: CD; for difference in percentage α-helicity in the presence of lipid membranes: DMPC and DMPS vesicles, lipid:peptide 100 to 1
Description: Secondary structure analyses of Djeya1 peptides were performed on a Jasco J-815 CD spectrometer (Jasco Ltd., Heckmondwike, UK). Peptides (0.01 mg mL^−^1) were dissolved in either 1 × phosphate buffered saline (PBS) at pH 7.4 or in a 2,2,2-tetrafluoroethanol (TFE) and 1 × PBS mixture (50.0% v/v). All buffers were prepared using ultra-pure water (resistivity 18 MΩ cm), PBS and TFE (Scientific Laboratory Supplies Ltd., Nottingham, UK). CD experiments were also performed at peptide:lipid ratios of 1:100, whilst 1,2-dimyristoyl-sn-glycero-3-phosphatidylcholine (DMPC) and 1,2-dimyristoyl-sn-glycero-3-phosphatidylserine (DMPS) (5 mg mL^−^1) (Avanti Polar Lipids, Alabaster, AL, USA) were dissolved separately in chloroform (HPLC grade, VWR International Ltd Lutterworth, UK) and dried under N2 gas. The lipid film was rehydrated using 1 × PBS, pH 7.5 for 1 h or until the solution was no longer turbid. The solution then underwent 5 cycles of freeze thaw before the lipid/peptide samples were prepared by the addition of peptide stock solution (final concentration 0.01 mg mL^−^1). Far UV CD spectra (180 nm to 260 nm) were recorded at 20 °C using 0.5 nm intervals, a bandwidth of 1 nm, a scan speed of 50 nm min^−1 and a 10 mm path-length cell. Ten accumulations were selected to average a single spectrum. Samples without peptide were prepared for background spectral subtraction. Data, baseline-subtracted and averaged CD, were analyzed using the Dichroweb server CDSSTR and SELCON3 reference dataset 3 [23, 24, 25]. To generate percentage structure averages, these analyses were repeated four times.

U251 cells = assay: Quantitative peptide uptake, U251; format: cell-based; conditions: 1 h, 37 °C; for rank order of uptake efficacy: U251, TAMRA-labelled peptides 1, 2.5, 5 μM, lysate fluorescence 544/590 nm, two experiments in triplicate
Description: (§1) U373MG and U251 cells were maintained as above and then transferred to 6-well plates and grown to 80% confluence. Cells were washed and maintained in phenol red-free DMEM and subsequently treated with TAMRA-conjugated Djeya1 analogues at final concentrations of 1 μM, 2.5 μM, and 5 μM for 1 h in culture conditions as above. Cells were washed four times, detached with 300 μL of 1% (w/v) trypsin (without phenol red) at 37 °C, collected by centrifugation, and lysed in 300 μL 0.1 M NaOH for 2 h on ice. A total of 250 μL of each sample cell lysate was transferred to a black 96-well plate and analysed using a Thermo Fischer Scientific (Loughborough, UK) Fluoroskan Ascent FL fluorescence spectrophotometer (λAbs 544 nm/λEm 590 nm).

U373MG cells = assay: Quantitative peptide uptake, U373MG; format: cell-based; conditions: TAMRA-labelled peptides 1, 2.5, 5 μM, 1 h, 37 °C, lysate fluorescence 544/590 nm, two experiments in triplicate
Description: as §1

[3] = 50% (v/v) TFE/PBS pH 7.4, peptide 0.01 mg mL-1, 20 °C
[4] = 50% (v/v) TFE/PBS pH 7.4, peptide 0.01 mg mL-1, 20 °C, Dichroweb, analyses repeated four times
[5] = DMPC vesicles, lipid:peptide 100 to 1, PBS, peptide 0.01 mg mL-1, 20 °C
[6] = DMPS vesicles, lipid:peptide 100 to 1, PBS, peptide 0.01 mg mL-1, 20 °C
[7] = PBS pH 7.4, peptide 0.01 mg mL-1, 20 °C, Dichroweb CDSSTR/SELCON3, analyses repeated four times
[8] = PBS pH 7.4, peptide 0.01 mg mL-1, 20 °C, Dichroweb, analyses repeated four times
[9] = 25 μM treatment, 30 days post amputation, in PAM

In the case of “H-RKLAFRYRRIKELYNSYR-NH2 [Djeya1, octadecapeptide CPP mimicking the α5 helix of the Eya domain of eyes absent proteins]”, the “influence upon planarian head regeneration” value [1] is reported as “inactive”, the Unordered [2, 3] is reported as 20.00 ± 1.41% and the ß-Strand [2, 3] is reported as 27.55 ± 3.53%. It also gave a ß-Turns [2, 3] of 7.00 ± 0.00%, a α-helix [2, 4] of 45.50 ± 4.94% and an Unordered [2, 5] of 22.00 ± 0.00%. For the same substance, the ß-Turns [2, 5] was 8.00 ± 0.0%, the α-helix [2, 5] was 44.00 ± 1.53% and the Unordered [2, 6] was 20.00 ± 0.00%. It also gave a ß-Strand [2, 6] of 26.00 ± 1.28%, a ß-Turns [2, 6] of 8.00 ± 0.00% and a α-helix [2, 6] of 47.00 ± 1.24%. The α-helix [2, 7] was 43.00 ± 1.73%, the Unordered [2, 8] was 20.00 ± 1.73% and the ß-Strand [2, 8] was 30.33 ± 0.58%. The ß-Turns [2, 8] was 6.67 ± 0.58%.

For “H-RKLAFRYRRIKELYN[Aib]YR-NH2 (SMILES CC[C@H](C)[C@H](NC(=O)[C@H](CCCNC(=N)N)NC(=O)[C@H](CCCNC(=N)N)NC(=O)[C@H](Cc1ccc(O)cc1)NC(=O)[C@H](CCCNC(=N)N)NC(=O)[C@H](Cc1ccccc1)NC(=O)[C@H](C)NC(=O)[C@H](CC(C)C)NC(=O)[C@H](CCCCN)NC(=O)[C@@H](N)CCCNC(=N)N)C(=O)N[C@@H](CCCCN)C(=O)N[C@@H](CCC(=O)O)C(=O)N[C@@H](CC(C)C)C(=O)N[C@@H](Cc1ccc(O)cc1)C(=O)N[C@@H](CC(N)=O)C(=O)NC(C)(C)C(=O)N[C@@H](Cc1ccc(O)cc1)C(=O)N[C@@H](CCCNC(=N)N)C(N)=O) [[Aib^16]Djeya1, Aib-substituted Djeya1 analogue, position 16; bioportide]”, the “rank order of uptake efficacy” value (U251 cells) was “[Aib^13]Djeya1 > [Aib^16]Djeya1 > [Aib^10]Djeya1”, the “influence upon planarian head regeneration” value [1] was “delay head regeneration” and the response to light [1] was “unresponsive to light”. For the same substance, the “regeneration of the anterior pole, including the eye spots” value [1] was “absent”, the “animals that achieved full regeneration” value [1, 9] was “all” and the “animals that had commenced the development of photoreceptors within the unpigmented blastema” value [1] was 67%. The Unordered [2, 3] was 19.50 ± 0.71%, the ß-Strand [2, 3] was 27.50 ± 0.71% and the ß-Turns [2, 3] was 7.00 ± 0.00%. For the same substance, the α-helix [2, 4] was 46.00 ± 1.41%, the “difference in percentage α-helicity in the presence of lipid membranes” value [2] was “No difference” and the Unordered [2, 5] was 22.00 ± 0.71%. It also gave a ß-Strand [2, 5] of 30.00 ± 0.71%, a ß-Turns [2, 5] of 7.00 ± 0.71% and a α-helix [2, 5] of 42.00 ± 0.71%. For the same substance, the Unordered [2, 6] was 22.00 ± 0.71%, the ß-Strand [2, 6] was 30.00 ± 0.71% and the ß-Turns [2, 6] was 8.00 ± 0.71%. It also gave a α-helix [2, 6] of 42.00 ± 0.00%, a α-helix [2, 7] of 39.67 ± 4.04% and an Unordered [2, 8] of 21.00 ± 1.00%. The ß-Strand [2, 8] was 31.67 ± 2.87%, the ß-Turns [2, 8] was 7.33 ± 0.58% and the “rank order of uptake efficacy” value (U373MG cells) was “[Aib^16]Djeya1 = [Aib^10]Djeya1 > [Aib^13]Djeya1”.

With “H-RKLAFRYRRIKE[Aib]YNSYR-NH2 (SMILES CC[C@H](C)[C@H](NC(=O)[C@H](CCCNC(=N)N)NC(=O)[C@H](CCCNC(=N)N)NC(=O)[C@H](Cc1ccc(O)cc1)NC(=O)[C@H](CCCNC(=N)N)NC(=O)[C@H](Cc1ccccc1)NC(=O)[C@H](C)NC(=O)[C@H](CC(C)C)NC(=O)[C@H](CCCCN)NC(=O)[C@@H](N)CCCNC(=N)N)C(=O)N[C@@H](CCCCN)C(=O)N[C@@H](CCC(=O)O)C(=O)NC(C)(C)C(=O)N[C@@H](Cc1ccc(O)cc1)C(=O)N[C@@H](CC(N)=O)C(=O)N[C@@H](CO)C(=O)N[C@@H](Cc1ccc(O)cc1)C(=O)N[C@@H](CCCNC(=N)N)C(N)=O) [[Aib^13]Djeya1, Aib-substituted Djeya1 analogue, position 13; bioportide]” the “uptake efficacy into U251 cells compared with U373MG cells” value (U251 cells; TAMRA-labelled peptide) was “increased uptake efficacy”, the “rank order of uptake efficacy” value (U251 cells) was “[Aib^13]Djeya1 > [Aib^16]Djeya1 > [Aib^10]Djeya1” and the “influence upon planarian head regeneration” value [1] was “delay head regeneration”. For the same substance, the response to light [1] was “unresponsive to light”, the “regeneration of the anterior pole, including the eye spots” value [1] was “absent” and the “animals that remained unregenerated and in stasis” value [1, 9] was 33%. The “animals that achieved full regeneration” value [1, 9] was 67%, the “animals that had commenced the development of photoreceptors within the unpigmented blastema” value [1] was 67% and the Unordered [2, 3] was 22.33 ± 1.50%. The ß-Strand [2, 3] was 31.00 ± 2.08%, the ß-Turns [2, 3] was 7.33 ± 0.05% and the α-helix [2, 4] was 40.00 ± 2.64%. The “effect of 50% TFE/PBS on α-helical structure” value ([2]; 50% TFE/PBS (v/v) compared with PBS) was “did not enhance”, the “difference in percentage α-helicity in the presence of lipid membranes” value [2] was “No difference” and the Unordered [2, 5] was 22.00 ± 0.71%. The ß-Strand [2, 5] was 30.00 ± 0.71%, the ß-Turns [2, 5] was 8.00 ± 0.71% and the α-helix [2, 5] was 42.00 ± 0.71%. For the same substance, the Unordered [2, 6] was 21.00 ± 0.71%, the ß-Strand [2, 6] was 30.00 ± 0.71% and the ß-Turns [2, 6] was 7.00 ± 0.71%. For the same substance, the α-helix [2, 6] was 42.00 ± 0.00%, the α-helix [2, 7] was 40.67 ± 1.52% and the Unordered [2, 8] was 22.33 ± 1.52%. For the same substance, the ß-Strand [2, 8] was 30.00 ± 1.00%, the ß-Turns [2, 8] was 7.00 ± 0.00% and the “rank order of uptake efficacy” value (U373MG cells) was “[Aib^16]Djeya1 = [Aib^10]Djeya1 > [Aib^13]Djeya1”.

In the case of “H-RKLAFRYRR[Aib]KELYNSYR-NH2 (SMILES CC(C)C[C@H](NC(=O)[C@H](CCCCN)NC(=O)[C@@H](N)CCCNC(=N)N)C(=O)N[C@@H](C)C(=O)N[C@@H](Cc1ccccc1)C(=O)N[C@@H](CCCNC(=N)N)C(=O)N[C@@H](Cc1ccc(O)cc1)C(=O)N[C@@H](CCCNC(=N)N)C(=O)N[C@@H](CCCNC(=N)N)C(=O)NC(C)(C)C(=O)N[C@@H](CCCCN)C(=O)N[C@@H](CCC(=O)O)C(=O)N[C@@H](CC(C)C)C(=O)N[C@@H](Cc1ccc(O)cc1)C(=O)N[C@@H](CC(N)=O)C(=O)N[C@@H](CO)C(=O)N[C@@H](Cc1ccc(O)cc1)C(=O)N[C@@H](CCCNC(=N)N)C(N)=O) [[Aib^10]Djeya1, Aib-substituted Djeya1 analogue, position 10]”, the “rank order of uptake efficacy” value (U251 cells) is reported as “[Aib^13]Djeya1 > [Aib^16]Djeya1 > [Aib^10]Djeya1”, the “influence upon planarian head regeneration” value [1] is reported as “inactive” and the Unordered [2, 3] is reported as 20.00 ± 0.00%. For the same substance, the ß-Strand [2, 3] was 21.00 ± 0.02%, the ß-Turns [2, 3] was 7.50 ± 0.71% and the α-helix [2, 4] was 51.50 ± 0.07%. For the same substance, the Unordered [2, 5] was 22.00 ± 1.41%, the ß-Turns [2, 5] was 7.00 ± 1.41% and the α-helix [2, 5] was 45.00 ± 1.58%. The Unordered [2, 6] was 16.00 ± 0.00%, the ß-Strand [2, 6] was 15.00 ± 0.00% and the ß-Turns [2, 6] was 5.00 ± 0.00%. The α-helix [2, 6] was 63.00 ± 2.82%, the α-helix [2, 7] was 41.33 ± 1.15% and the Unordered [2, 8] was 20.67 ± 0.58%. For the same substance, the ß-Strand [2, 8] was 31.33 ± 0.58%, the ß-Turns [2, 8] was 7.00 ± 0.00% and the “rank order of uptake efficacy” value (U373MG cells) was “[Aib^16]Djeya1 = [Aib^10]Djeya1 > [Aib^13]Djeya1”.
